This note sets out measurements from ChEMBL document CHEMBL1128443, “Synthesis and structure-activity relationships of phenylenebis(methylene)-linked bis-tetraazamacrocycles that inhibit HIV replication. Effects of macrocyclic ring size and substituents on the aromatic linker” (J Med Chem, 1995).

Some results are limits rather than exact numbers.

The subject of test [1] is MT4. As to the kind of experiment: Concentration required to reduce the viability of mock-infected MT-4 cells. The format is functional, Homo sapiens.
Test [2] concerns Human immunodeficiency virus 1. Kind of test: Concentration required to protect the virus infected cells against viral cytopathicity was measured on HIV-1(IIIB) virus strain in MT-4 cells. The format is functional, organism-based, MT4. A general note: Damage to the host cells serves as the signal in cytopathic effect assays.
The subject of test [3] is Human immunodeficiency virus 2. As to the kind of experiment: Concentration required to protect the virus infected cells against viral cytopathicity was measured on HIV-2(ROD) virus strain in MT-4 cells. Format: functional, organism-based, MT4.
In test [4] the test system is MT4. Particulars: Homo sapiens.
Setting [5] is: Human immunodeficiency virus 1, MT4.
The mark [6] stands for this setting: Human immunodeficiency virus 2, MT4.
Where [7] appears, read: mt4, tested as the Zn salt or complex.

The term EC50 denotes the concentration at which the effect is half-maximal. In test [1] (Homo sapiens, MT4), `c1cc(CN2CCCNCCNCCNCCC2)ccc1CN1CCCNCCNCCNCCC1` registered a CC50 greater than 421 µM. The results for the half-maximal effective concentration (EC50) in test [2] (setting [5]) and in test [3] (setting [6]) were 0.0253 µM and 0.059 µM, respectively.

With `Cc1ccc(CN2CCCNCCNCCCNCC2)cc1`, the CC50 in test [1] (Homo sapiens, MT4) is greater than 324 µM. The EC50 in test [2] (setting [5]) was found to be 1.42 µM; in test [3] (setting [6]), 1.15 µM.

For the molecule `c1cc(CN2CCCNCCNCCCNCC2)ccc1CN1CCCNCCNCCCNCC1` [listing 1 of 2 here], the CC50 in test [1] (Homo sapiens, MT4) was greater than 421 µM. The molecule also registered a concentration for a half-maximal effect (EC50) in test [2] (setting [5]) of 0.0042 µM.

In test [1] (Homo sapiens, MT4), `c1cc(CN2CCCNCCNCCNCCC2)cc(CN2CCCNCCNCCNCCC2)c1` came in with a CC50 greater than 403 µM. Besides, the half-maximal effective concentration (EC50) was determined as 0.323 µM in test [2] (setting [5]) and 0.645 µM in test [3] (setting [6]).

In test [1] (Homo sapiens, MT4), `COc1cc(CN2CCCNCCNCCCNCC2)c(OC)cc1CN1CCCNCCNCCCNCC1` had a CC50 greater than 206 µM. Further, the figures for the EC50 in test [2] (setting [5]) and in test [3] (setting [6]) were 0.0058 µM and 0.0066 µM, respectively.

With “1,1'-[1,4-phenylenebis(methylene)]bis[1,4,8,11-tetraazacyclotetradecane] Palladium Diperchlorate Tetrahydrate (4H2O) [listing 1 of 2 here]”, the EC50 in test [2] (mt4) was 31.5 µM; in test [3] (mt4) it was 59.3 µM.

In test [1] (Homo sapiens, MT4), `O=[N+]([O-])c1cc(CN2CCCNCCNCCCNCC2)cc(CN2CCCNCCNCCCNCC2)c1` came in with a CC50 of 44 µM. For the same molecule, the EC50 in test [2] (setting [5]) was 0.0406 µM; in test [3] (setting [6]), 0.0569 µM.

Take `Cc1cc(CN2CCCNCCNCCCNCC2)c(C)cc1CN1CCCNCCNCCCNCC1`: the CC50 in test [1] (Homo sapiens, MT4) is greater than 208 µM. Also, the EC50 was determined as 0.0064 µM in test [2] (setting [5]) and 0.0011 µM in test [3] (setting [6]).

Regarding `c1cc(CN2CCCNCCNCCCNCC2)cc(CN2CCCNCCNCCCNCC2)c1`, the CC50 in test [1] (Homo sapiens, MT4) was greater than 421 µM. In addition, the EC50 in test [2] (setting [5]) was 0.0337 µM; in test [3] (setting [6]) it was 0.0422 µM.

For the molecule `c1cc(CN2CCCNCCCNCCCNCCC2)cc(CN2CCCNCCCNCCCNCCC2)c1`, in test [1] (Homo sapiens, MT4), the CC50 turned out to be 193 µM. Besides, the EC50 in test [2] (setting [5]) amounted to 16.7 µM; in test [3] (setting [6]) it was 71.5 µM.

`CCN1CCCN(CC)CCN(Cc2ccc(CN3CCCN(CC)CCN(CC)CCCN(CC)CC3)cc2)CCCN(CC)CC1` yielded a CC50 in test [1] (Homo sapiens, MT4) greater than 341 µM. Moreover, the results for the concentration for a half-maximal effect (EC50) in test [2] (setting [5]) and in test [3] (setting [6]) were 7.79 µM and 14.6 µM, respectively.

Molecule `c1ccc(-c2cc(CN3CCCNCCNCCCNCC3)cc(CN3CCCNCCNCCCNCC3)c2)cc1` yielded a CC50 in test [1] (Homo sapiens, MT4) greater than 198 µM. The EC50 in test [2] (setting [5]) was found to be 0.206 µM; in test [3] (setting [6]), 0.0246 µM.

As for `Brc1cc(CN2CCCNCCNCCCNCC2)cc(CN2CCCNCCNCCCNCC2)c1`, the CC50 in test [1] (Homo sapiens, MT4) is greater than 192 µM. Besides, the EC50 in test [2] (setting [5]) turned out to be 0.0845 µM; in test [3] (setting [6]) it was 0.0538 µM.

`c1cc(CN2CCCNCCCNCCNCCC2)ccc1CN1CCCNCCCNCCNCCC1` had a CC50 in test [1] (Homo sapiens, MT4) of 171 µM. For the same molecule, the EC50 in test [2] (setting [5]) was 1.67 µM; in test [3] (setting [6]), 2.01 µM.

“1,1'-[1,4-phenylenebis(methylene)]bis[1,4,8,11-tetraazacyclotetradecane]copper Heptahydrate (7H2O) [listing 1 of 2 here]”: the CC50 in test [4] is greater than 201 µM.

In test [1] (Homo sapiens, MT4), `Clc1cc(CN2CCCNCCNCCCNCC2)c(Cl)cc1CN1CCCNCCNCCCNCC1` showed a CC50 of 58 µM. The EC50 in test [2] (setting [5]) came to 0.0107 µM; in test [3] (setting [6]) it was 0.0025 µM.

In turn, `Fc1c(CN2CCCNCCNCCCNCC2)cccc1CN1CCCNCCNCCCNCC1` came in with a CC50 in test [1] (Homo sapiens, MT4) greater than 201 µM. The concentration for a half-maximal effect (EC50) in test [2] (setting [5]) came out at 0.0347 µM; in test [3] (setting [6]), 0.0734 µM.

Regarding “1,1'-[1,4-phenylenebis(methylene)]bis[1,4,8,11-tetraazacyclotetradecane]copper Heptahydrate (7H2O) [listing 2 of 2 here]”, the half-maximal effective concentration (EC50) in test [2] (mt4) amounted to 0.0181 µM; in test [3] (mt4), 0.0272 µM.

In test [1] (Homo sapiens, MT4), `c1ccc(-c2cc(CN3CCCNCCNCCCNCC3)ccc2CN2CCCNCCNCCCNCC2)cc1` yielded a CC50 greater than 198 µM. In addition, the EC50 was found to be 0.106 µM in test [2] (setting [5]) and 0.08 µM in test [3] (setting [6]).

Regarding `c1cc(CN2CCCNCCNCCNCCC2)ccc1CN1CCCNCCCNCCCNCCC1`, in test [1] (Homo sapiens, MT4), the CC50 is 101 µM. Besides, the 50% effective concentration (EC50) in test [2] (setting [5]) amounted to 0.318 µM; in test [3] (setting [6]) it was 3.18 µM.

As to `c1ccc(CN2CCCNCCNCCCNCC2)c(CN2CCCNCCNCCCNCC2)c1`, the CC50 in test [1] (Homo sapiens, MT4) was greater than 168 µM. The figures for the 50% effective concentration (EC50) in test [2] (setting [5]) and in test [3] (setting [6]) were 1.36 µM and 3.13 µM, respectively.

Molecule `c1cc(CN2CCCNCCNCCCNCC2)ccc1CN1CCCNCCCNCCCNCCC1` returned a CC50 in test [1] (Homo sapiens, MT4) greater than 209 µM. The EC50 in test [2] (setting [5]) came to 2.43 µM; in test [3] (setting [6]), 11.6 µM.

On to `Clc1c(Cl)c(CN2CCCNCCNCCCNCC2)c(Cl)c(CN2CCCNCCNCCCNCC2)c1Cl`, for which, in test [1] (Homo sapiens, MT4), the CC50 amounted to 9 µM. Moreover, the EC50 in test [2] (setting [5]) amounted to 0.529 µM; in test [3] (setting [6]), 1.96 µM.

`Fc1c(F)c(CN2CCCNCCNCCCNCC2)c(F)c(F)c1CN1CCCNCCNCCCNCC1` had a CC50 in test [1] (Homo sapiens, MT4) of 47 µM. The EC50 in test [2] (setting [5]) and in test [3] (setting [6]) was 0.0079 µM in each case.

The molecule `c1cc(CN2CCCNCCCNCCNCCC2)cc(CN2CCCNCCCNCCNCCC2)c1` gave a CC50 in test [1] (Homo sapiens, MT4) greater than 190 µM. Besides, the EC50 was 2.72 µM in test [2] (setting [5]) and 11.7 µM in test [3] (setting [6]).

“1,1'-[1,4-phenylenebis(methylene)]bis[1,4,8,11-tetraazacyclotetradecane] Palladium Diperchlorate Tetrahydrate (4H2O) [listing 2 of 2 here]” came in with a CC50 in test [4] greater than 210 µM.

For the molecule `c1cc(CN2CCNCCNCCNCC2)ccc1CN1CCNCCNCCNCC1`, the CC50 in test [1] (Homo sapiens, MT4) was 55 µM. In addition, the figures for the EC50 in test [2] (setting [5]) and in test [3] (setting [6]) were 0.322 µM and 2.36 µM, respectively.

On to `Brc1cc(CN2CCCNCCNCCCNCC2)ccc1CN1CCCNCCNCCCNCC1`, for which the CC50 in test [1] (Homo sapiens, MT4) is greater than 203 µM. The EC50 in test [2] (setting [5]) was 0.0061 µM; in test [3] (setting [6]), 0.0035 µM.

As to `c1cc(CC2CNCCNCCCNCCNC2)ccc1CC1CNCCNCCCNCCNC1`, the CC50 in test [1] (Homo sapiens, MT4) turned out to be 406 µM. Besides, the EC50 in test [2] (setting [5]) is 0.506 µM; in test [3] (setting [6]), 0.674 µM.

Regarding `c1cc(CN2CCNCCCNCCNCC2)ccc1CN1CCNCCCNCCNCC1`, the CC50 in test [1] (Homo sapiens, MT4) was greater than 208 µM. The values for the EC50 in test [2] (setting [5]) and in test [3] (setting [6]) were 0.167 µM and 0.234 µM, respectively.

In turn, `c1cc(CN2CCCNCCNCCCNCC2)ccc1CN1CCCNCCNCCNCCC1` displayed a CC50 in test [1] (Homo sapiens, MT4) greater than 397 µM. The EC50 in test [2] (setting [5]) was 0.0079 µM; in test [3] (setting [6]), 0.0556 µM.

Consider `c1cc(CN2CCCNCCCNCCCNCCC2)ccc1CN1CCCNCCCNCCCNCCC1`, for which, in test [1] (Homo sapiens, MT4), the CC50 came out at 48 µM. Moreover, the half-maximal effective concentration (EC50) in test [2] (setting [5]) came to 9.13 µM; in test [3] (setting [6]), 13.7 µM.

On to `O=[N+]([O-])c1cc(CN2CCCNCCNCCCNCC2)ccc1CN1CCCNCCNCCCNCC1`, for which the CC50 in test [1] (Homo sapiens, MT4) is greater than 203 µM. Besides, the results for the EC50 in test [2] (setting [5]) and in test [3] (setting [6]) were 0.065 µM and 0.0731 µM, respectively.

For `c1cc(CN2CCNCCNCCNCC2)cc(CN2CCNCCNCCNCC2)c1`, in test [1] (Homo sapiens, MT4), the CC50 is 20 µM. Also, the results for the EC50 in test [2] (setting [5]) and in test [3] (setting [6]) were 0.0751 µM and 0.536 µM, respectively.

Consider `c1cc(CCN2CCCNCCNCCCNCC2)ccc1CCN1CCCNCCNCCCNCC1`, for which the CC50 in test [1] (Homo sapiens, MT4) was greater than 201 µM. The values for the EC50 in test [2] (setting [5]) and in test [3] (setting [6]) were 14.9 µM and 69.7 µM, respectively.

`NCCCNCCNCCCNCc1ccc(CN2CCCNCCNCCCNCC2)cc1` came in with a CC50 in test [1] (Homo sapiens, MT4) greater than 444 µM. Also, the EC50 came out at 0.373 µM in test [2] (setting [5]) and 0.711 µM in test [3] (setting [6]).

Consider `c1cc(CN2CCCNCCNCCCNCC2)ccc1CN1CCCNCCNCCCNCC1` [listing 2 of 2 here], for which, in test [1] (tested as the Zn salt or complex), the CC50 was greater than 251 µM. Further, the half-maximal effective concentration (EC50) stood at 0.0033 µM in test [2] (setting [7]) and 0.0024 µM in test [3] (setting [7]).

In test [1] (Homo sapiens, MT4), `c1cc(CCCN2CCCNCCNCCCNCC2)ccc1CCCN1CCCNCCNCCCNCC1` came in with a CC50 of 283 µM. Further, the EC50 in test [2] (setting [5]) came out at 0.403 µM; in test [3] (setting [6]), 14.5 µM.

With `c1cc(CN2CCCNCCNCCNCCC2)cc(CN2CCCNCCNCCCNCC2)c1`, the CC50 in test [1] (Homo sapiens, MT4) was greater than 421 µM. Moreover, the EC50 amounted to 0.0843 µM in test [2] (setting [5]) and 0.759 µM in test [3] (setting [6]).

In test [1] (Homo sapiens, MT4), `c1cc(CN2CCNCCCNCCNCC2)cc(CN2CCNCCCNCCNCC2)c1` gave a CC50 greater than 184 µM. Besides, the EC50 in test [2] (setting [5]) stood at 0.0408 µM; in test [3] (setting [6]), 0.0618 µM.

Consider `Brc1c(CN2CCCNCCNCCCNCC2)cccc1CN1CCCNCCNCCCNCC1`, for which, in test [1] (Homo sapiens, MT4), the CC50 was greater than 144 µM. The concentration for a half-maximal effect (EC50) worked out at 0.138 µM in test [2] (setting [5]) and 0.246 µM in test [3] (setting [6]).

On to `C1CNCCNCCCNCCNC1`, for which, in test [1] (Homo sapiens, MT4), the CC50 was greater than 1250 µM. The values for the EC50 in test [2] (setting [5]) and in test [3] (setting [6]) were 399 µM and 150 µM, respectively.
